Assay results: patent US20090263472A1, “ENDOTHELIN RECEPTOR ANTAGONIST DERIVATIVES” (NICOX S.A., priority 2006, published 2009)

Tests used:
[1] = system: spontaneously hypertensive rats (SHR); experiment: Antihypertensive activity in vivo, tail-cuff systolic blood pressure; set-up: species or system rat; details: for Δ SBP (Systolic Blood Pressure) 1 hr / Δ SBP (Systolic Blood Pressure) 3 hrs / Δ SBP (Systolic Blood Pressure) 6 hrs: p.o., delta vs own baseline, bosentan 100 mpk, compound of EX. 1 equimolar dose; for Δ SBP (Systolic Blood Pressure) 1 hr: 1 hr after treatment; for Δ SBP (Systolic Blood Pressure) 3 hrs: 3 hrs after treatment; for Δ SBP (Systolic Blood Pressure) 6 hrs: 6 hrs after treatment
Procedure: Ten days prior to the beginning of the experiment, spontaneously hypertensive rats (SHR) are trained daily for the measurement of blood pressure by the tail-cuff method ([…] et Al.; Am. J. Physiol. Heart Circ. Physiol 286: […]-[…], 2004) using model BP-2000 Blood Pressure Analysis System from U.Basile (Comerio, VA Italy). Each animal is placed in individuals cages into a warming cupboard (37° C.) for 15 minutes. […] Average of blood pressure values from individual rats are evaluated from 3/5 different consecutive measurements. […] The data are processed both as the absolute value or as a delta between the absolute value and its own baseline.

[2] = system: isolated rabbit thoracic aorta preparations; experiment: Studies on vascular tone: vasorelaxation of noradrenaline-precontracted aortic rings; format: cell-based; details: for relaxation of precontracted aortic rings (in words): cumulative concentration-response curve, noradrenaline 1 μM precontraction

Row | EC50 (μM) ± sem ([2]; concentration producing 50% of maximum relaxation, aortic rings contracted with noradrenaline 1 μM, functional endothelium) | EC50 ([2]; concentration producing 50% of maximum relaxation, aortic rings contracted with noradrenaline 1 μM, functional endothelium, read-out: EC50 (μM) ± sem) | Compound | Δ SBP (Systolic Blood Pressure) 1 hr [1] | Δ SBP (Systolic Blood Pressure) 3 hrs [1] | Δ SBP (Systolic Blood Pressure) 6 hrs [1] | relaxation of precontracted aortic rings (in words) [2] | reduction in blood pressure (in words) ([1]; oral administration)
1 | no effect | – | COc1ccccc1Oc1c(NS(=O)(=O)c2ccc(C(C)(C)C)cc2)nc(-c2ncccn2)nc1OCCO [Bosentan, reference compound] | 0 mmHg | 6 mmHg | −1 mmHg | did not produce relaxation at any of the concentration tested | –
2 | – | 33.9 ± 2.5 µM | COc1ccccc1Oc1c(NS(=O)(=O)c2ccc(C(C)(C)C)cc2)nc(-c2ncccn2)nc1OCCOC(=O)CCCO[N+](=O)[O-] [Compound of EX. 1] | −8 mmHg | −18 mmHg | −6 mmHg | able to induce relaxation in a concentration-dependent manner | able to induce a clear reduction in blood pressure
